Measurements reported in BindingDB's records for doi:10.1016/S0960-894X(00)80224-3 (1992).

Biological target: Gastrin/cholecystokinin type B receptor (Cavia porcellus)
Assay: Displacement of [125I]CCK-OP radioligand from Cholecystokinin type B receptor of guinea pig cortical membranes

IC50, > 10 µM:
O=C(N[C@H]1C(=O)N(c2ccccc2)C[C@@H]1C(=O)O)c1ccc2ccccc2c1 [(3S,4R)-4-[(Naphthalene-2-carbonyl)-amino]-5-oxo-1-phenyl-pyrrolidine-3-carboxylic acid]
O=C(N[C@@H]1C(=O)N(c2ccccc2F)C[C@@H]1C(=O)O)c1ccc2ccccc2c1 [(3S,4S)-1-(2-Fluoro-phenyl)-4-[(naphthalene-2-carbonyl)-amino]-5-oxo-pyrrolidine-3-carboxylic acid]
O=C(N[C@@H]1C(=O)N(c2ccccc2F)C[C@@H]1C(=O)O)c1cnc2ccccc2c1 [(3S,4S)-1-(2-Fluoro-phenyl)-5-oxo-4-[(quinoline-3-carbonyl)-amino]-pyrrolidine-3-carboxylic acid]
O=C(N[C@@H]1C(=O)N(c2ccccc2)C[C@@H]1C(=O)O)c1ccc2ccccc2c1 [(3S,4S)-4-[(Naphthalene-2-carbonyl)-amino]-5-oxo-1-phenyl-pyrrolidine-3-carboxylic acid]
